Active and inactive are the calls of the source. How the calls were made is not given here.
Test system: rodent lifetime carcinogenesis bioassay, tumor incidence TD50
Experiment: chronic cancer bioassays in animals – CPDB, compiled studies (AID 1745844)

OCCN(CCO)C(=S)S
TD50 (mouse, strain B6AKF1, females, oral dosing, site: any site (literature study), lesion: several types, types named in the paper, dosed 79 weeks, study length 79 weeks): 138 mg/kg/day | TD50 (mouse, strain B6AKF1, females, oral dosing, site: liver, lesion: hepatoma, dosed 79 weeks, study length 79 weeks): 298 mg/kg/day | TD50 (mouse, strain B6AKF1, females, oral dosing, site: lung, lesion: adenoma, dosed 79 weeks, study length 79 weeks): 850 mg/kg/day | TD50 (mouse, strain B6AKF1, males, oral dosing, site: any site (literature study), lesion: several types, types named in the paper, dosed 79 weeks, study length 79 weeks): 45.6 mg/kg/day | TD50 (mouse, strain B6AKF1, males, oral dosing, site: liver, lesion: hepatoma, dosed 79 weeks, study length 79 weeks): 41.5 mg/kg/day | TD50 (mouse, strain B6C3F1, females, oral dosing, site: any site (literature study), lesion: several types, types named in the paper, dosed 79 weeks, study length 79 weeks): 48.4 mg/kg/day | TD50 (mouse, strain B6C3F1, females, oral dosing, site: liver, lesion: hepatoma, dosed 79 weeks, study length 79 weeks): 56.4 mg/kg/day | TD50 (mouse, strain B6C3F1, females, oral dosing, site: lung, lesion: adenoma, dosed 79 weeks, study length 79 weeks): 1080 mg/kg/day | TD50 (mouse, strain B6C3F1, males, oral dosing, site: any site (literature study), lesion: several types, types named in the paper, dosed 79 weeks, study length 79 weeks): 27.8 mg/kg/day | TD50 (mouse, strain B6C3F1, males, oral dosing, site: liver, lesion: hepatoma, dosed 79 weeks, study length 79 weeks): 34.5 mg/kg/day

Cc1ccc(N=Nc2c(O)ccc3ccccc23)c([N+](=O)[O-])c1
TD50 (mouse, strain B6C3F1, females, in feed, site: any site (literature study), lesion: several types, types named in the paper, dosed 103 weeks, study length 104 weeks): 13800 mg/kg/day | TD50 (mouse, strain B6C3F1, females, in feed, site: liver, lesion: hepatocellular adenoma + hepatocellular carcinoma + neoplastic nodule, dosed 103 weeks, study length 104 weeks): 204000 mg/kg/day | TD50 (mouse, strain B6C3F1, females, in feed, site: lung, lesion: alveolar/bronchiolar adenoma + alveolar/bronchiolar carcinoma, dosed 103 weeks, study length 104 weeks): 252000 mg/kg/day | TD50 (mouse, strain B6C3F1, females, in feed, site: lymph node, lesion: axillary histiocytic sarcoma + deep cervical, histiocytic sarcoma + iliac histiocytic sarcoma + inguinal histiocytic sarcoma + r, dosed 103 weeks, study length 104 weeks): 104000 mg/kg/day (inactive) | TD50 (mouse, strain B6C3F1, males, in feed, site: all sites, lesion: malignant lymphoma, histiocytic type + malignant lymphoma, mixed type, dosed 103 weeks, study length 104 weeks): 22700 mg/kg/day | TD50 (mouse, strain B6C3F1, males, in feed, site: any site (literature study), lesion: several types, types named in the paper, dosed 103 weeks, study length 104 weeks): 9420 mg/kg/day | TD50 (mouse, strain B6C3F1, males, in feed, site: kidney cortex + thyroid gland, lesion: adenoma + follicular-cell adenoma, dosed 103 weeks, study length 104 weeks): 19500 mg/kg/day | TD50 (mouse, strain B6C3F1, males, in feed, site: kidney cortex, lesion: adenoma, dosed 103 weeks, study length 104 weeks): 35500 mg/kg/day | TD50 (mouse, strain B6C3F1, males, in feed, site: liver, lesion: hepatocellular adenoma + hepatocellular carcinoma + neoplastic nodule, dosed 103 weeks, study length 104 weeks): 17900 mg/kg/day | TD50 (mouse, strain B6C3F1, males, in feed, site: lung, lesion: alveolar/bronchiolar adenoma + alveolar/bronchiolar carcinoma, dosed 103 weeks, study length 104 weeks): 36900 mg/kg/day | TD50 (mouse, strain B6C3F1, males, in feed, site: thyroid gland, lesion: follicular-cell adenoma, dosed 103 weeks, study length 104 weeks): 38300 mg/kg/day | TD50 (rat, strain Fischer 344, females, in feed, site: liver, lesion: hepatocellular adenoma + hepatocellular carcinoma + neoplastic nodule, dosed 103 weeks, study length 104 weeks): 5240 mg/kg/day | TD50 (rat, strain Fischer 344, females, in feed, site: liver, lesion: hepatocellular adenoma, dosed 103 weeks, study length 104 weeks): 5240 mg/kg/day | TD50 (rat, strain Fischer 344, males, in feed, site: Zymbal's gland, lesion: carcinoma, dosed 103 weeks, study length 104 weeks): 9010 mg/kg/day | TD50 (rat, strain Fischer 344, males, in feed, site: adrenal medulla, lesion: pheochromocytoma, benign, dosed 103 weeks, study length 104 weeks): 674 mg/kg/day | TD50 (rat, strain Fischer 344, males, in feed, site: adrenal medulla, lesion: pheochromocytoma, malignant + pheochromocytoma, benign, dosed 103 weeks, study length 104 weeks): 661 mg/kg/day | TD50 (rat, strain Fischer 344, males, in feed, site: any site (literature study), lesion: several types, types named in the paper, dosed 103 weeks, study length 104 weeks): 906 mg/kg/day | TD50 (rat, strain Fischer 344, males, in feed, site: liver, lesion: hepatocellular adenoma + hepatocellular carcinoma + neoplastic nodule, dosed 103 weeks, study length 104 weeks): 5170 mg/kg/day | TD50 (rat, strain Fischer 344, males, in feed, site: skin, lesion: carcinoma + squamous-cell papilloma, dosed 103 weeks, study length 104 weeks): 3660 mg/kg/day | TD50 (rat, strain Fischer 344, males, in feed, site: skin, lesion: squamous-cell papilloma, dosed 103 weeks, study length 104 weeks): 2540 mg/kg/day

Nc1ccc(N(CCO)CCO)cc1
TD50 (rat, strain F344/DuCrj, females, in feed, site: liver, lesion: hepatocellular adenoma, dosed 104 weeks, study length 104 weeks): 7310 mg/kg/day (inactive) | carcinogen call (rat, strain F344/DuCrj, males, in feed, site: liver, lesion: hepatocellular adenoma, dosed 104 weeks, study length 104 weeks): negative (inactive) | carcinogen call (rat, strain F344/DuCrj, males, in feed, site: liver, lesion: hepatocellular carcinoma, dosed 104 weeks, study length 104 weeks): negative (inactive)

CC(C)(c1ccc(O)cc1)c1ccc(O)cc1
carcinogen call (mouse, strain B6C3F1, females, in feed, site: any site (literature study), lesion: several types, types named in the paper, dosed 103 weeks, study length 107 weeks): negative (inactive) | TD50 (mouse, strain B6C3F1, females, in feed, site: liver, lesion: hepatocellular adenoma + hepatocellular carcinoma + neoplastic nodule, dosed 103 weeks, study length 107 weeks): 13100 mg/kg/day | TD50 (mouse, strain B6C3F1, females, in feed, site: lung, lesion: alveolar/bronchiolar adenoma + alveolar/bronchiolar carcinoma, dosed 103 weeks, study length 107 weeks): 41400 mg/kg/day | TD50 (mouse, strain B6C3F1, males, in feed, site: all sites, lesion: leukemia + lymphoma, dosed 103 weeks, study length 107 weeks): 445 mg/kg/day (inactive) | TD50 (mouse, strain B6C3F1, males, in feed, site: all sites, lesion: lymphoma, dosed 103 weeks, study length 107 weeks): 508 mg/kg/day | TD50 (mouse, strain B6C3F1, males, in feed, site: any site (literature study), lesion: several types, types named in the paper, dosed 103 weeks, study length 107 weeks): 1.32e+06 mg/kg/day | TD50 (mouse, strain B6C3F1, males, in feed, site: pituitary gland, lesion: chromophobe carcinoma, dosed 103 weeks, study length 107 weeks): 6690 mg/kg/day | carcinogen call (rat, strain Fischer 344, females, in feed, site: any site (literature study), lesion: several types, types named in the paper, dosed 103 weeks, study length 108 weeks): negative (inactive) | TD50 (rat, strain Fischer 344, females, in feed, site: liver, lesion: hepatocellular adenoma + hepatocellular carcinoma + neoplastic nodule, dosed 103 weeks, study length 108 weeks): 595 mg/kg/day | TD50 (rat, strain Fischer 344, males, in feed, site: mammary gland, lesion: fibroadenoma, dosed 103 weeks, study length 108 weeks): 675 mg/kg/day (inactive)

O=[N+]([O-])c1ccc(-c2nc(N3CCOCC3)c3ccccc3n2)s1
TD50 (rat, strain Sprague-Dawley, females, in feed, site: any site (literature study), lesion: several types, types named in the paper, dosed 46 weeks, study length 66 weeks): 5.03 mg/kg/day

CC
carcinogen call (mouse, strain B6C3F1, females, in feed, site: any site (literature study), lesion: several types, types named in the paper, dosed 103 weeks, study length 105 weeks): negative (inactive) | TD50 (mouse, strain B6C3F1, females, in feed, site: forestomach, lesion: several types, types named in the paper, dosed 96 weeks, study length 106 weeks): 111000 mg/kg/day (inactive) | TD50 (mouse, strain B6C3F1, females, in feed, site: liver, lesion: hepatocellular adenoma + hepatocellular carcinoma + neoplastic nodule, dosed 103 weeks, study length 105 weeks): 31100 mg/kg/day | carcinogen call (mouse, strain B6C3F1, females, in feed, site: liver, lesion: several types, types named in the paper, dosed 96 weeks, study length 106 weeks): negative (inactive) | TD50 (mouse, strain B6C3F1, females, in feed, site: lung, lesion: alveolar/bronchiolar adenoma + alveolar/bronchiolar carcinoma, dosed 103 weeks, study length 105 weeks): 24700 mg/kg/day | carcinogen call (mouse, strain B6C3F1, females, in feed, site: lung, lesion: several types, types named in the paper, dosed 96 weeks, study length 106 weeks): negative (inactive) | TD50 (mouse, strain B6C3F1, males, in feed, site: all sites, lesion: hemangioma, dosed 103 weeks, study length 105 weeks): 80800 mg/kg/day (inactive) | TD50 (mouse, strain B6C3F1, males, in feed, site: any site (literature study), lesion: several types, types named in the paper, dosed 103 weeks, study length 105 weeks): 46000 mg/kg/day | TD50 (mouse, strain B6C3F1, males, in feed, site: forestomach, lesion: squamous-cell papilloma, dosed 96 weeks, study length 106 weeks): 240000 mg/kg/day (inactive) | carcinogen call (mouse, strain B6C3F1, males, in feed, site: liver, lesion: several types, types named in the paper, dosed 96 weeks, study length 106 weeks): negative (inactive) | carcinogen call (mouse, strain B6C3F1, males, in feed, site: lung, lesion: several types, types named in the paper, dosed 96 weeks, study length 106 weeks): negative (inactive) | TD50 (rat, strain Fischer 344, females, in feed, site: any site (literature study), lesion: several types, types named in the paper, dosed 103 weeks, study length 105 weeks): 8310 mg/kg/day (inactive) | TD50 (rat, strain Fischer 344, males, in feed, site: any site (literature study), lesion: several types, types named in the paper, dosed 103 weeks, study length 105 weeks): 7970 mg/kg/day (inactive) | TD50 (rat, strain Fischer 344, males, in feed, site: liver, lesion: hepatocellular adenoma + hepatocellular carcinoma + neoplastic nodule, dosed 103 weeks, study length 105 weeks): 33500 mg/kg/day

C[C@@H]1O[C@@H](OC[C@H]2O[C@@H](Oc3c(-c4ccc(O)c(O)c4)oc4cc(O)cc(O)c4c3=O)[C@H](O)[C@@H](O)[C@@H]2O)[C@H](O)[C@H](O)[C@H]1O
TD50 (hamster, strain Syrian Golden, females, in feed, site: adrenal gland, lesion: cortical adenoma, dosed 104 weeks, study length 104 weeks): 132000 mg/kg/day (inactive) | TD50 (hamster, strain Syrian Golden, females, in feed, site: uterus, lesion: leiomyoma, dosed 104 weeks, study length 104 weeks): 140000 mg/kg/day (inactive) | carcinogen call (hamster, strain Syrian Golden, males, in feed, site: adrenal gland, lesion: cortical adenoma, dosed 104 weeks, study length 104 weeks): negative (inactive) | carcinogen call (hamster, strain Syrian Golden, males, in feed, site: forestomach, lesion: papilloma, dosed 104 weeks, study length 104 weeks): negative (inactive) | TD50 (rat, strain ACI, females, in feed, site: adrenal gland, lesion: pheochromocytoma, dosed 121 weeks, study length 121 weeks): 90400 mg/kg/day (inactive) | TD50 (rat, strain ACI, females, in feed, site: heart, lesion: sarcoma, dosed 121 weeks, study length 121 weeks): 90400 mg/kg/day (inactive) | TD50 (rat, strain ACI, females, in feed, site: pituitary gland, lesion: adenoma, dosed 77 weeks, study length 77 weeks): 8910 mg/kg/day (inactive) | TD50 (rat, strain ACI, females, in feed, site: urinary bladder, lesion: papilloma, dosed 77 weeks, study length 77 weeks): 8910 mg/kg/day (inactive) | TD50 (rat, strain ACI, males, in feed, site: adrenal gland, lesion: cortical adenoma, dosed 77 weeks, study length 77 weeks): 5710 mg/kg/day (inactive) | TD50 (rat, strain ACI, males, in feed, site: colon, lesion: adenoma, dosed 121 weeks, study length 121 weeks): 72300 mg/kg/day (inactive) | TD50 (rat, strain ACI, males, in feed, site: ileum, lesion: adenoma, dosed 121 weeks, study length 121 weeks): 72300 mg/kg/day (inactive) | TD50 (rat, strain ACI, males, in feed, site: testis, lesion: interstitial-cell tumor, dosed 77 weeks, study length 77 weeks): 3530 mg/kg/day (inactive) | TD50 (rat, strain Sprague-Dawley, females, by gavage, site: liver, lesion: hepatocellular carcinoma, dosed 104 weeks, study length 138 weeks): 44800 mg/kg/day (inactive) | carcinogen call (rat, strain Sprague-Dawley, males, by gavage, site: liver, lesion: hepatocellular carcinoma, dosed 104 weeks, study length 134 weeks): negative (inactive)

Reference: PubChem BioAssay AID1745844 (Carcinogenic Potency Database (CPDB), 2022)
